From the NIST ThermoML archive (doi:10.1016/j.tca.2016.08.008)

O=P([O-])([O-])[O-].[Tb+3] [terbium orthophosphate]
101.33 kPa, Metastable crystal
Conditions | mass density [kg/m3] | molar entropy [J/K/mol]
7 K, Vacuum adiabatic calorimetry | – | 0.0744
8 K, Vacuum adiabatic calorimetry | – | 0.1113
9 K, Vacuum adiabatic calorimetry | – | 0.1586
10 K, Vacuum adiabatic calorimetry | – | 0.2174
12 K, Vacuum adiabatic calorimetry | – | 0.3747
14 K, Vacuum adiabatic calorimetry | – | 0.5915
16 K, Vacuum adiabatic calorimetry | – | 0.8724
18 K, Vacuum adiabatic calorimetry | – | 1.219
20 K, Vacuum adiabatic calorimetry | – | 1.627
25 K, Vacuum adiabatic calorimetry | – | 2.889
30 K, Vacuum adiabatic calorimetry | – | 4.414
35 K, Vacuum adiabatic calorimetry | – | 6.129
40 K, Vacuum adiabatic calorimetry | – | 7.99
45 K, Vacuum adiabatic calorimetry | – | 9.975
50 K, Vacuum adiabatic calorimetry | – | 12.07
55 K, Vacuum adiabatic calorimetry | – | 14.26
60 K, Vacuum adiabatic calorimetry | – | 16.53
70 K, Vacuum adiabatic calorimetry | – | 21.26
80 K, Vacuum adiabatic calorimetry | – | 26.15
90 K, Vacuum adiabatic calorimetry | – | 31.12
100 K, Vacuum adiabatic calorimetry | – | 36.12
110 K, Vacuum adiabatic calorimetry | – | 41.09
120 K, Vacuum adiabatic calorimetry | – | 46.02
130 K, Vacuum adiabatic calorimetry | – | 50.9
140 K, Vacuum adiabatic calorimetry | – | 55.72
150 K, Vacuum adiabatic calorimetry | – | 60.46
160 K, Vacuum adiabatic calorimetry | – | 65.13
170 K, Vacuum adiabatic calorimetry | – | 69.73
180 K, Vacuum adiabatic calorimetry | – | 74.26
190 K, Vacuum adiabatic calorimetry | – | 78.71
200 K, Vacuum adiabatic calorimetry | – | 83.09
210 K, Vacuum adiabatic calorimetry | – | 87.39
220 K, Vacuum adiabatic calorimetry | – | 91.63
230 K, Vacuum adiabatic calorimetry | – | 95.79
240 K, Vacuum adiabatic calorimetry | – | 99.88
250 K, Vacuum adiabatic calorimetry | – | 103.9
260 K, Vacuum adiabatic calorimetry | – | 107.9
270 K, Vacuum adiabatic calorimetry | – | 111.7
280 K, Vacuum adiabatic calorimetry | – | 115.6
290 K, Vacuum adiabatic calorimetry | – | 119.3
298 K, X-ray diffraction | 6088 | –
300 K, Vacuum adiabatic calorimetry | – | 123
310 K, Vacuum adiabatic calorimetry | – | 126.6
320 K, Vacuum adiabatic calorimetry | – | 130.2
325 K, Vacuum adiabatic calorimetry | – | 132
340 K, Small sample (50 mg) DSC | – | 137.1
360 K, Small sample (50 mg) DSC | – | 143.9
380 K, Small sample (50 mg) DSC | – | 150.4
400 K, Small sample (50 mg) DSC | – | 156.7
420 K, Small sample (50 mg) DSC | – | 162.7
440 K, Small sample (50 mg) DSC | – | 168.6
460 K, Small sample (50 mg) DSC | – | 174.3
480 K, Small sample (50 mg) DSC | – | 179.8
500 K, Small sample (50 mg) DSC | – | 185.2
520 K, Small sample (50 mg) DSC | – | 190.4
540 K, Small sample (50 mg) DSC | – | 195.4
560 K, Small sample (50 mg) DSC | – | 200.3
580 K, Small sample (50 mg) DSC | – | 205.1
600 K, Small sample (50 mg) DSC | – | 209.7
620 K, Small sample (50 mg) DSC | – | 214.2
640 K, Small sample (50 mg) DSC | – | 218.6
660 K, Small sample (50 mg) DSC | – | 222.8
680 K, Small sample (50 mg) DSC | – | 227
700 K, Small sample (50 mg) DSC | – | 231
720 K, Small sample (50 mg) DSC | – | 235
740 K, Small sample (50 mg) DSC | – | 238.8
760 K, Small sample (50 mg) DSC | – | 242.6
780 K, Small sample (50 mg) DSC | – | 246.2
800 K, Small sample (50 mg) DSC | – | 249.8
820 K, Small sample (50 mg) DSC | – | 253.3
840 K, Small sample (50 mg) DSC | – | 256.8
860 K, Small sample (50 mg) DSC | – | 260.1
880 K, Small sample (50 mg) DSC | – | 263.4
900 K, Small sample (50 mg) DSC | – | 266.7
920 K, Small sample (50 mg) DSC | – | 269.8
940 K, Small sample (50 mg) DSC | – | 272.9
960 K, Small sample (50 mg) DSC | – | 275.9
980 K, Small sample (50 mg) DSC | – | 278.9
1000 K, Small sample (50 mg) DSC | – | 281.8
1009 K, Small sample (50 mg) DSC | – | 283.1

Conditions | Triple point temperature [K]
Crystal 2, DSC | 1643
